Here are results for eleven compounds from ChEMBL document CHEMBL1201862, “PubChem BioAssay data set” (2004).

Experiment [1] deals with Protein disulfide-isomerase (Homo sapiens, UniProt P07237). Briefly: inhibition of PDI-driven insulin aggregation – biochemical, turbidity, absorbance, cherry-picked samples, dose response (AID 602350). It counts as functional.
Experiment [2] is described as follows: blockers of CAL PDZ–TMR peptide complex – biochemical, fluorescence polarization, untagged CAL PDZ, cherry-pick, set 2, dose response (AID 602254). The experiment is classed as functional. For orientation: Polarisation of emitted light reports the rotation of a fluorescent probe.
The nature of experiment [3]: viability of PTEN-deleted HCT116 cells – cell-based, HCT116 PTEN knockout, dose response (AID 1047).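 Note: HCT116 colon tumor cells with PTEN knocked out; cells exposed to compound for 60 hours before readout; potency for loss of cell viability measured by luminescence.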 The experiment is classed as functional.
Experiment [4] can be described thus: viability of HCT116 lacking mutant beta-catenin – cell-based, human colon tumor, dose response (AID 1045).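 Note: HCT116 colon tumor cells with beta catenin knocked out; cells exposed to compound for 60 hours.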 The experiment is classed as functional.
Experiment [5] has as its target T1, High affinity choline transporter 1 (Homo sapiens, UniProt Q9GZV3).
T1 sequence (Q9GZV3 whole entry): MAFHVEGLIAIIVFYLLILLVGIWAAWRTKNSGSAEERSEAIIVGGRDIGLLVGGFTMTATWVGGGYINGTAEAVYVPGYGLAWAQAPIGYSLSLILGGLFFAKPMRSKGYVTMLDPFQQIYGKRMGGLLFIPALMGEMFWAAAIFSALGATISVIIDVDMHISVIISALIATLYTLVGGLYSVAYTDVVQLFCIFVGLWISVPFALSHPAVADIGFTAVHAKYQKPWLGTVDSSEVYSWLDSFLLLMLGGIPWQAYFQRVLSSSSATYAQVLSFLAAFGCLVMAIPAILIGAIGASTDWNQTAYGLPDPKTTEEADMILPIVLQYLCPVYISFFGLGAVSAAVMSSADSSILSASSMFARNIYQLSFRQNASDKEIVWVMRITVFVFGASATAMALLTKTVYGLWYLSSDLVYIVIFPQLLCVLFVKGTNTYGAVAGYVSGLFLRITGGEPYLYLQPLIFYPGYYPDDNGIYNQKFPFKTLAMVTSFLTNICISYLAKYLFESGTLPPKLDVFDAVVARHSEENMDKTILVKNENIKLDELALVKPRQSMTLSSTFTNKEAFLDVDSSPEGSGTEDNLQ
Briefly: human choline transporter potentiators, potency – cell-based, 10-point CRC, membrane potential dye, dose response (AID 602376). It counts as functional.

The nature of experiment [6]: microbe, parasite or virus in culture. The experiment is classed as functional. The conditions noted are these: Mycobacterium tuberculosis.
The nature of experiment [7]: THP-1 cell cytotoxicity, dose response, cytotoxicity control for non-replicating M. tuberculosis project (AID 489025). The experiment is classed as functional.
The nature of another experiment: cells. It counts as functional.
For another experiment, the target named is T2, Estrogen receptor (Homo sapiens, UniProt P03372).
T2 sequence (P03372 whole entry): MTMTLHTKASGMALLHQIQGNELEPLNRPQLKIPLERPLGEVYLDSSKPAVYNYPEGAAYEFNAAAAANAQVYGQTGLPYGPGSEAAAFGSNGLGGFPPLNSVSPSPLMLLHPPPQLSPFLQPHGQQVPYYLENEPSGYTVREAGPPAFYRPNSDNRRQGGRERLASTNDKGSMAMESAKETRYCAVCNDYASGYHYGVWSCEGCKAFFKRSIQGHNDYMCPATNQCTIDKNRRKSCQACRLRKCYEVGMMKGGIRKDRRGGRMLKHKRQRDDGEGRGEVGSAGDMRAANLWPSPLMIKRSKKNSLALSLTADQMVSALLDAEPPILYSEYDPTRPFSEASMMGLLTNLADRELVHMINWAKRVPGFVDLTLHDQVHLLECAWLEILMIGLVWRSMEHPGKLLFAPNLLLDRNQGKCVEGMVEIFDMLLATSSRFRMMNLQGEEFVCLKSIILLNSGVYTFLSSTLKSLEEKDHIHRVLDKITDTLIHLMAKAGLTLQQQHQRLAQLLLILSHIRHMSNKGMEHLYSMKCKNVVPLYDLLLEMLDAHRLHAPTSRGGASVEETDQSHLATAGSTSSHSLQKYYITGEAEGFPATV

The target of experiment [8] is T3, Estrogen receptor beta (Homo sapiens, UniProt Q92731).
In experiment [9] the target is T3, Estrogen receptor beta. In words: blockers of SRC-3 recruitment to ERβ – biochemical, ELISA, streptavidin-HRP readout, orthogonal assay, confirmation (AID 1060). A general note: ELISA stands for enzyme-linked immunosorbent assay.
Experiment [10] concerns the target T4, Carboxy-terminal domain RNA polymerase II polypeptide A small phosphatase 1 (Homo sapiens, UniProt Q9GZU7).
T4 sequence (Q9GZU7 whole entry): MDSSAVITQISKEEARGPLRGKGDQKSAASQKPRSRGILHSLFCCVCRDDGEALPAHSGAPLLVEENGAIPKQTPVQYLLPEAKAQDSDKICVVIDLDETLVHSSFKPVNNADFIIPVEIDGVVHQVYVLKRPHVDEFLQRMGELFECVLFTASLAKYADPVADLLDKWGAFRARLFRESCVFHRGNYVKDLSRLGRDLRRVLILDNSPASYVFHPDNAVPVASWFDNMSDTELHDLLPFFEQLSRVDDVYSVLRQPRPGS
In words: CTDSP1 inhibitors, concentration-response, biochemical, absorbance readout, ultra-high-throughput screen actives (AID 540297). It counts as functional.

Experiment [11] has as its target DNA (cytosine-5)-methyltransferase 1 (Homo sapiens, UniProt P26358). Briefly: inhibition of DNA methylation by DNMT1 – biochemical, fluorescent molecular beacon, confirmation (AID 602386). The experiment is classed as functional.
In another experiment the target is Melanocortin receptor 4 (Homo sapiens, UniProt P32245). In words: inhibitors of MC4R cAMP signaling – cell-based, TR-FRET, biased antagonists, dose response (AID 602298).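 Note: antagonist potency against agonist-stimulated cAMP production.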 The experiment is classed as functional.
The nature of experiment [12]: cAMP pathway inhibition in counterscreen cell line – TR-FRET cAMP detection, counter-screen for MC4R biased antagonist project, dose response (AID 602305).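 Note: U2OS cells stimulated with forskolin near its EC80 as the cAMP inducer; potency is for inhibition of forskolin-stimulated cAMP signaling.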 The experiment is classed as functional, cell-based. For orientation: The purpose of a counterscreen is to sort out artefacts and off-target activity.
Experiment [13] is described as follows: blockers of bursicon-stimulated LGR2 cAMP reporter – cell-based, HEK293, CRE-luciferase reporter, cherry pick, set 2, dose response (AID 743343).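 Note: transfected cells were stimulated with diluted bursicon conditioned medium after compound addition.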 The experiment is classed as functional.
Experiment [14] can be described thus: blockade of melanocortin 4 receptor signaling – cell-based, plate reader, cherry pick, counter-screen for LGR2 antagonist project, dose response (AID 743444).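 Note: transfected HEK 293 cells stimulated with alpha-MSH peptide; potency of inhibitors of the alpha-MSH evoked signal.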 The experiment is classed as functional.
Experiment [15] can be described thus: viability loss in HEK293 cells – cell-based, plate reader, cherry-picked samples, cytotoxicity control, dose response (AID 743446). It counts as functional.
In experiment [16] the target is T5, Apoptotic protease-activating factor 1 (Homo sapiens, UniProt O14727).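 Note: caspase-3 cleavage of fluorogenic Rh110 DEVD substrate downstream of apoptosome activation.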
T5 sequence (O14727 whole entry): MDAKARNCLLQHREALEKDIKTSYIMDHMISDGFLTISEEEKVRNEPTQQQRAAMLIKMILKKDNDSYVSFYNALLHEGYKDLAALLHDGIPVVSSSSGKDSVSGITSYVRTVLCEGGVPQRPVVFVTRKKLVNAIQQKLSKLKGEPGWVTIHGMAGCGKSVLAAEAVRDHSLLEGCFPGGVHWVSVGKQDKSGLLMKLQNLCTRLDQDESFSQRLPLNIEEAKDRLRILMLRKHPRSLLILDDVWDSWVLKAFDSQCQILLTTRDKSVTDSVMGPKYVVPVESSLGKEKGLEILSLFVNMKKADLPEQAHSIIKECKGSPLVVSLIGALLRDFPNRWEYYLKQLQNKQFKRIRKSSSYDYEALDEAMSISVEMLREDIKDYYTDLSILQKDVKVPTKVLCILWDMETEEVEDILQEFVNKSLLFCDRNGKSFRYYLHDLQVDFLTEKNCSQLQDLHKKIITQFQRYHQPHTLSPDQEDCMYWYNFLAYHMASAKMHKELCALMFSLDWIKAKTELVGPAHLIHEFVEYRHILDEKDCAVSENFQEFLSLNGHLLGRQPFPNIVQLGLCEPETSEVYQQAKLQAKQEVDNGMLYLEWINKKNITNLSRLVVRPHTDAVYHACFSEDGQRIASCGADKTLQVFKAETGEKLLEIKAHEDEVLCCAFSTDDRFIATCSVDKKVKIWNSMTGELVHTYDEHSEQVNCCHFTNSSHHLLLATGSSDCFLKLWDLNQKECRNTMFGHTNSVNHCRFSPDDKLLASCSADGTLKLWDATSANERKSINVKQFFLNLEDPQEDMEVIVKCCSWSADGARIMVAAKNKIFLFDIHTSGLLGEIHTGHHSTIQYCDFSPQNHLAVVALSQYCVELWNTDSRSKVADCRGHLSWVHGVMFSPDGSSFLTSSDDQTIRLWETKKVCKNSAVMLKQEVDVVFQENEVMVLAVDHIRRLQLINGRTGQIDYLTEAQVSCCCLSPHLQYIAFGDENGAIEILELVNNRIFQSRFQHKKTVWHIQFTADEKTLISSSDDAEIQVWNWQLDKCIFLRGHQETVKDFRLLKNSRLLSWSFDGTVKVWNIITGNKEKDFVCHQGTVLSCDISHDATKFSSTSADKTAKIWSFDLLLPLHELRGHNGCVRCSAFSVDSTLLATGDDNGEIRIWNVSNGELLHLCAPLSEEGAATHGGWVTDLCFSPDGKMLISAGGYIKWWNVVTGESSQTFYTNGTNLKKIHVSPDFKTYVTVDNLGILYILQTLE
Briefly: SAR analysis of small molecule Activators of Apaf-1 in a Fluorescent assay. It counts as functional. The following applies: read-out: EC50_Mean.

Experiment [17] has as its target T6, Neuropeptides B/W receptor type 1 (Homo sapiens, UniProt P48145).
T6 sequence (P48145 whole entry): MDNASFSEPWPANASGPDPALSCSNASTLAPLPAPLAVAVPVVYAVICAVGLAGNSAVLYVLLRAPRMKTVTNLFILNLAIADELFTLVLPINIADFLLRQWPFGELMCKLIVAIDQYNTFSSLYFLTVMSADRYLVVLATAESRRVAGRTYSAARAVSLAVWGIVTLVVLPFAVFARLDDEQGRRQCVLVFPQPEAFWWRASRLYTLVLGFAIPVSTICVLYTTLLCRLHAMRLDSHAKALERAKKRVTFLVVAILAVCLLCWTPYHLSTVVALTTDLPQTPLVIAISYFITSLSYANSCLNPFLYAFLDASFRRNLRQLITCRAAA
In words: human NPBW1 receptor blockade, IC50 – cell-based, fluorescence, dose response, set 5, late-stage follow-up (AID 588566). The experiment is classed as functional.

For experiment [18], the target named is Melanin-concentrating hormone receptor 1 (Homo sapiens, UniProt Q99705). In words: Late-stage fluorescence-based counterscreen for antagonists of the G-protein coupled receptor 7 (GPR7): cell-based dose response assay to identify antagonists of the melanin-concentrating hormone receptor 1 (MCHR1) Set 5. It counts as functional.

Calls of active or inactive are those of the source.

Melanocortin receptor 4, sequence (P32245 whole entry): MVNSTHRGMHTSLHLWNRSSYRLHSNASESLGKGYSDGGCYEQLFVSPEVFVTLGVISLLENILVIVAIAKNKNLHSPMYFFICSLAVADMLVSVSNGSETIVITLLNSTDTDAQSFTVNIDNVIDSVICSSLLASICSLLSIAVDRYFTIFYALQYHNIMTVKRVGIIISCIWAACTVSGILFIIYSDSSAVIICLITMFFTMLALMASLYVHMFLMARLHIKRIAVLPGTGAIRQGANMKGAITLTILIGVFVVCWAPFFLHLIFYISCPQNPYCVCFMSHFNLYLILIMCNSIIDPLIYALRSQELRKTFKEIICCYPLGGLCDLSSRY
Melanin-concentrating hormone receptor 1, sequence (Q99705 whole entry): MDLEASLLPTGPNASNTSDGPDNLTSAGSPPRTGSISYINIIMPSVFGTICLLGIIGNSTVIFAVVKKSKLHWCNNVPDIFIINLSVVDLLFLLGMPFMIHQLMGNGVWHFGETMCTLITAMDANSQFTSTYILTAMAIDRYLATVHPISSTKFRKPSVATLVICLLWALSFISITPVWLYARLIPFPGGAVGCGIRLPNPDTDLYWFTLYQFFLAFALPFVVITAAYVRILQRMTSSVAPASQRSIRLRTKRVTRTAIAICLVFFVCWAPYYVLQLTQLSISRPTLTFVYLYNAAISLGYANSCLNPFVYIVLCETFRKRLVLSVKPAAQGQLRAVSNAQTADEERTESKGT
Protein disulfide-isomerase, sequence (P07237 whole entry): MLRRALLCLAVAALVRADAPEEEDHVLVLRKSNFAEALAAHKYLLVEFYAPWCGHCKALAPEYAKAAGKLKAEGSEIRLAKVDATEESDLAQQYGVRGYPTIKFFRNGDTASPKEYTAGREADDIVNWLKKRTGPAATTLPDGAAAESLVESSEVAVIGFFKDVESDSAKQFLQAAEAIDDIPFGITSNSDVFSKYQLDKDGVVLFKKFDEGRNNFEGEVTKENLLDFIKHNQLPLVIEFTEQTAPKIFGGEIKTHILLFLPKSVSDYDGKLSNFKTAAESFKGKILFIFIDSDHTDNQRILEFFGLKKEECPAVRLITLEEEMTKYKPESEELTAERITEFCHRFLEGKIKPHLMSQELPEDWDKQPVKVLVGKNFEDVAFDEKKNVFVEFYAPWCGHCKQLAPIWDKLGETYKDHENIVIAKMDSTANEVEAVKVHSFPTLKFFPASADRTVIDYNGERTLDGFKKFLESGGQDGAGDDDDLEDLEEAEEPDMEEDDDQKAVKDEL
T3 sequence (Q92731 whole entry): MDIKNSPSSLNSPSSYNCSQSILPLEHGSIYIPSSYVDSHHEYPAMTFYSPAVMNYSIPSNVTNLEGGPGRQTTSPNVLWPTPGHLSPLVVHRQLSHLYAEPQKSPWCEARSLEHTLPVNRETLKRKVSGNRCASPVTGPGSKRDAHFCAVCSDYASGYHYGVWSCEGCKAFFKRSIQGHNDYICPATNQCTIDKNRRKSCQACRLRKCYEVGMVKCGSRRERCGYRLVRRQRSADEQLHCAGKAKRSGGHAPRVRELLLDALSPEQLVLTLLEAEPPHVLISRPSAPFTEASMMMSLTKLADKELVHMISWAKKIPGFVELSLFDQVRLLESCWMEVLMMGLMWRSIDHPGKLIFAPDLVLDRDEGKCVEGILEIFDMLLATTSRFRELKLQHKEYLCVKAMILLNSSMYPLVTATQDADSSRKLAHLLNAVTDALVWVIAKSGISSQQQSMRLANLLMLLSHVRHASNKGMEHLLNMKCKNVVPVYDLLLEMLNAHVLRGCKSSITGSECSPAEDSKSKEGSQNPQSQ
DNA (cytosine-5)-methyltransferase 1, sequence (P26358 whole entry): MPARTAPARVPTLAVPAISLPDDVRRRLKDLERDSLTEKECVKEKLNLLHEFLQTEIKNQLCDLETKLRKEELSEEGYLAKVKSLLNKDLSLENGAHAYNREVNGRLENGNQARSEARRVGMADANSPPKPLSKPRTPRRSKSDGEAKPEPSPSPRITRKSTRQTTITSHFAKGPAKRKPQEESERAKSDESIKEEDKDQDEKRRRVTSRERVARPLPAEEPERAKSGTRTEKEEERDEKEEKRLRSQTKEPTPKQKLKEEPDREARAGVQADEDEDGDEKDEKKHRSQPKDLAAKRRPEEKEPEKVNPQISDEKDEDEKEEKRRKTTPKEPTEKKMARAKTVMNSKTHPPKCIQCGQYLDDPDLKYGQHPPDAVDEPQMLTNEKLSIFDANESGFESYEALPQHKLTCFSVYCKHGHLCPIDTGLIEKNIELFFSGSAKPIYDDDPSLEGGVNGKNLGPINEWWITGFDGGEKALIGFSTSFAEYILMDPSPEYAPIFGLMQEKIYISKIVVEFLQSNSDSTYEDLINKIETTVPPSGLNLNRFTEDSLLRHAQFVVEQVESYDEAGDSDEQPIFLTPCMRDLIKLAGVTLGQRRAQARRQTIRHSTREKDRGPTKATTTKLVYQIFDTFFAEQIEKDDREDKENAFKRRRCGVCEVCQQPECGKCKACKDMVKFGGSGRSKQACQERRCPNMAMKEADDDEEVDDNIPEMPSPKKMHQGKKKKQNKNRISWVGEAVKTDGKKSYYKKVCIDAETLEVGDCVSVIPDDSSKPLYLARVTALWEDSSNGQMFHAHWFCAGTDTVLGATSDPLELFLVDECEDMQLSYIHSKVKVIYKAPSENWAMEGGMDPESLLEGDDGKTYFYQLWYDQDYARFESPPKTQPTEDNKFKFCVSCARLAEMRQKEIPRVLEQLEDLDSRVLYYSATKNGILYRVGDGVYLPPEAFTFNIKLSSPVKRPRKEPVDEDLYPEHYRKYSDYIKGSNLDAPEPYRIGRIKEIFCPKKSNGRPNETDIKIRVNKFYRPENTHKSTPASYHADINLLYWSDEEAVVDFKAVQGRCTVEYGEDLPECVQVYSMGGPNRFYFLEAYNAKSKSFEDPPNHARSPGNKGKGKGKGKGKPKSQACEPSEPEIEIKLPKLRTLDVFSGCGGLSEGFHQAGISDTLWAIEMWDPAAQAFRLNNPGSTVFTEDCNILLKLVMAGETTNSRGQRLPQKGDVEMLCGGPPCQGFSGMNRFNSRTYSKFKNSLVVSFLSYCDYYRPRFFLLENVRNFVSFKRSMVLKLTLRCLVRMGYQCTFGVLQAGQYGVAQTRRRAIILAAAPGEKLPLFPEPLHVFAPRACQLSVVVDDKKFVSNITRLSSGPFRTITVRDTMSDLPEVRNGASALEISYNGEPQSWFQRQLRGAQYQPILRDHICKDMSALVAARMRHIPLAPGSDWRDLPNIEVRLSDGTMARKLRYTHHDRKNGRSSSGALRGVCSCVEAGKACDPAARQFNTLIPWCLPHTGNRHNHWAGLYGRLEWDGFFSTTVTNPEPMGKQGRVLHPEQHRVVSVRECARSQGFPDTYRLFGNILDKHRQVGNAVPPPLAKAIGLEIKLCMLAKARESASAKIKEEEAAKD

On to `CC(C)(C)OC(=O)N[C@@H](Cc1c[nH]c2ccccc12)c1nnc(SCC(N)=O)o1`, for which the AC50 (as a rule, the concentration at which the activity in the assay is half-maximal) in experiment [1] is 19.5 µM (active).
Consider `N#Cc1ccc(NC(=S)NCCN2CCOCC2)cc1`, for which, in [2], the concentration at half-maximal activity (AC50) was 107 µM (active).
Consider `O=C(Cc1cccs1)N(Cc1ccco1)C1(C(=O)NC2CCCCC2)CCCCC1`, for which the EC50 in experiment [3] was 159 µM (active); in experiment [4], 431 µM (active); in experiment [5], 24.2 µM (active).
As to `CCc1cc(OCCCCNCc2ccccc2)ccc1Cl`, the CC50 in experiment [6] and in [7] was > 40 µM (active) each time. The IC50 (usually the concentration needed to halve the response being measured) in “cells” is 20.1 µM (active). For the same compound, the AC50 in experiment [1] was 10.6 µM (active).
With `Cc1ccnc(NS(=O)(=O)c2ccc(NC(=O)Cc3cccs3)cc2)n1`, the IC50 at Estrogen receptor was 12.2 µM (active); on Estrogen receptor beta [8], 3.09 µM (active); on Estrogen receptor beta [9], > 109 µM (not active); in experiment [10], 4.2 µM (active); in experiment [11], 9.16 µM (active).
Turning to `CC(C)c1ccccc1NC(=O)Cn1c(-c2ccccc2Cl)nc2ccccc21`, the EC50 in experiment [5] is 18.3 µM (active).
Consider `O=C(COC(=O)CNC(=O)c1ccc(Cl)cc1Cl)NCc1ccco1`, for which the IC50 (at Melanocortin receptor 4; in experiment [12]) was > 64.6 µM (inactive) each time.
For `Cc1ccc2nc(-c3ccc(NC(=O)C(C)Sc4nncs4)cc3)sc2c1` (configuration not stated), the IC50 (at Melanocortin receptor 4; in experiment [12]) was > 64.6 µM (inactive) each time. Further, the AC50 in experiment [13] is 5.56 µM (active); in [14] it was 5.51 µM (active); in experiment [15], > 52 µM (inactive).
Take `CCOc1ccccc1NC(=O)CCS(=O)(=O)c1cc2c(cc1Br)CCN2C(=O)CC`: in [16], the EC50 is > 100 µM (inactive).
Regarding `N#CC(c1ccccc1)c1c(Cl)cnn(Cc2cccc3ccccc23)c1=O` (configuration not stated), the IC50 in [17] is 0.13 µM (active); in [18] it was 7.61 µM (active).
In the case of `COc1ccc(Oc2c(Cl)cnn(CC(=O)O)c2=O)cc1`, the IC50 in experiment [17] and in [18] was > 20 µM (inactive) in each case.
